Source: PubChem BioAssay (NCI)
Values joined by “and” are separate entries in the source; they are usually repeats but may differ in a detail not shown here. Equal values may be shown once.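 How tested: cells in 96-well plates exposed to compound for 48 hours at five concentrations. The concentration for 50% growth inhibition is given as GI50. The concentration for full growth arrest is given as TGI.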

Experiments:
Assay in all cases: NCI anticancer screen, dose series, 48 h
[1] = test system: SF-539 CNS
[2] = test system: KM12 colon
[3] = test system: HL-60(TB) leukemia
[4] = test system: RXF 393 renal
[5] = test system: SK-MEL-5 melanoma
[6] = test system: ACHN renal
[7] = test system: A498 renal
[8] = test system: OVCAR-5 ovarian
[9] = test system: RPMI-8226 leukemia
[10] = test system: M14 melanoma

Row | Structure (SMILES) | GI50 [1] | TGI [1] | GI50 [2] | TGI [2] | GI50 [3] | TGI [3] | GI50 [4] | TGI [4] | GI50 [5] | TGI [5] | GI50 [6] | TGI [6] | GI50 [7] | TGI [7] | GI50 [8] | TGI [8] | GI50 [9] | TGI [9] | GI50 [10] | TGI [10]
1 | C[C@H]1CCC/C=C/C2CC(OC(=O)CN(C)C)CC2C(OC(=O)CN(C)C)/C=C/C(=O)O1 (stereo not given in full) | 531 nM | > 100 µM | 198 nM | 1.31 µM | 682 nM | 7.47 µM | 97.2 nM | 0.314 µM | 98.2 nM | 0.243 µM | 398 nM | 11.9 µM | 50.8 nM | 0.282 µM | 440 nM | 4.05 µM | 712 nM | > 81.4 µM | 178 nM | 4.65 µM
2 | OCC1NC(COC2OC(CO)C(O)C(O)C2O)C(O)C(O)C1O (stereo not given) |  | > 100 µM |  | > 100 µM |  | > 100 µM |  | > 100 µM |  | > 100 µM |  | > 100 µM |  | > 100 µM |  | > 100 µM |  | > 100 µM |  | > 100 µM
3 | Nc1nc(=O)n(C2CC(O)C(CO)O2)cc1F (stereo not given) | 4.18 nM | < 0.0448 µM | > 66300 nM | > 100 µM | > 80800 nM | > 100 µM | > 57800 nM | > 100 µM | 228 nM | > 100 µM | 8.02 nM and < 10.8 nM | > 100 µM | 46 nM | > 100 µM | > 100000 nM | > 100 µM |  | > 100 µM | 222 nM | > 100 µM
4 | CNC(=O)c1cc(Oc2ccc3nc(NC(=O)Nc4ccc(CN5CCOCC5)c(C(F)(F)F)c4)sc3c2)ccn1 | 1580 nM | 3.37 µM | 446 nM | 2.31 µM | 2700 nM | 7.41 µM | 1810 nM | 4.03 µM | 1010 nM | 2.22 µM | 1680 nM | 4.21 µM | 1900 nM | 4.05 µM | 2440 nM | 6.9 µM | 1720 nM | 4.49 µM | 2480 nM | 6.53 µM
5 | CC(=O)OC1C[C@H]2C(OC(=O)c3ccccc3)C3C4(OC(C)=O)COC4C[C@H](OC(C)=O)[C@@]3(C)C(OC(C)=O)[C@H](OC(C)=O)C(=C1C)C2(C)C (stereo not given in full) |  | > 100 µM |  | > 100 µM |  | 72 µM |  | 49.3 µM |  | > 100 µM |  | > 100 µM |  | > 100 µM |  | > 100 µM |  | > 100 µM |  | > 100 µM
6 | COc1ccc(-c2nn(-c3cccc(Cl)c3)cc2/C=C2\NC(=S)N(c3ccc(Cl)cc3)C2=O)cc1 | 8220 nM | > 25 µM | 10100 nM | > 25 µM | 8610 nM | > 25 µM | 3020 nM | 9.97 µM | 4220 nM | 11 µM | 3720 nM | > 25 µM | 3510 nM | 8.56 µM | 6310 nM | > 25 µM | 3530 nM | 15.9 µM | 4390 nM | 10.2 µM
7 | COC(=O)c1cc(-c2ccc3ccccc3c2)[nH]c(=O)c1C#N |  | > 100 µM |  | > 100 µM |  | 38.7 µM |  | > 100 µM |  | > 100 µM |  | > 100 µM |  | > 100 µM |  | > 100 µM |  | > 100 µM |  | > 100 µM
8 | NC(Cc1ccccc1)C(=O)OCN1C(=O)C2C3C=CC(C2C1=O)C1C2C(=O)N(COC(=O)C(N)Cc4ccccc4)C(=O)C2C31 (stereo not given) |  | 44.8 µM and 44.6 µM |  | 40.7 µM and 40.1 µM |  | 43.5 µM and > 100 µM |  | 41.7 µM and 39.3 µM |  | 34.4 µM and 32.9 µM |  | 59.2 µM and 71.3 µM | > 100000 nM and 46000 nM | > 100 µM |  | > 100 µM |  | 56.4 µM and 44.7 µM |  | 35 µM and 33.9 µM
9 | COc1cc2c(Oc3ccc(NC(=O)C4(C(=O)Nc5ccc(F)cc5)CC4)cc3F)ccnc2cc1OCCCN1CCOCC1 | 288 nM and 456 nM | 1.65 µM and 1.67 µM | 17.7 nM and 18.9 nM | 1.44 µM and 2.28 µM | 164 nM and 389 nM | 2.02 µM and 2.34 µM | 468 nM and 661 nM | 1.77 µM and 1.9 µM | 1370 nM and 1390 nM | 2.68 µM and 2.71 µM | 558 nM and 702 nM | 2.33 µM and 3.27 µM | < 46.2 nM and 383 nM | 1.24 µM and 1.7 µM | 885 nM and 1350 nM | 2.7 µM and > 8.7 µM | 2020 nM and 1680 nM | 5.02 µM and 7.07 µM | 479 nM and 540 nM | 1.83 µM and 1.96 µM
10 | O=C(O)C1C2C=CC(O2)C1C(=O)NCc1cccnc1 (stereo not given) |  | > 100 µM |  | > 100 µM |  | > 100 µM |  | > 100 µM |  | > 100 µM |  | > 100 µM |  | > 100 µM |  | > 100 µM |  | > 100 µM |  | > 100 µM
11 | NC1=NN(c2ccccc2)C(=O)C1C(=O)C(=O)Nc1ccc(Cl)cc1 (stereo not given) |  | > 100 µM |  | > 100 µM |  | > 100 µM |  | > 100 µM |  | > 100 µM |  | > 100 µM |  | > 100 µM |  | > 100 µM |  | > 100 µM |  | > 100 µM
12 | Cc1nnc(C[C@@H]2C=C(c3ccc(Cl)cc3)c3ccccc3-n3c(C)nnc32)o1 | 1160 nM | 54.3 µM | 6250 nM | > 100 µM | 250 nM | 35.5 µM | 1390 nM | 18.9 µM | 1810 nM | 19.7 µM | 1250 nM | > 100 µM | 712 nM | 12.7 µM | 4700 nM | > 100 µM | 135 nM | 19.8 µM | 529 nM | 56.7 µM
13 | C/C(=C1/N=C(c2cc([N+](=O)[O-])ccc2Cl)N(c2ccc(Br)cc2)C1=O)c1ccc(N(CCC#N)CCC#N)cc1C |  | > 100 µM |  | > 100 µM |  | 36.3 µM |  | > 100 µM |  | > 100 µM |  | > 100 µM |  | 96.4 µM |  | > 100 µM |  | 77.2 µM |  | > 100 µM
14 | COc1ccccc1-n1cnc(N)c1C(=O)c1cc(OC)c(OC)c(OC)c1 | 2420 nM | 9.12 µM | 3220 nM | > 100 µM | 3120 nM | > 100 µM | 2190 nM | 64.5 µM | 3130 nM | > 100 µM | 5190 nM | > 100 µM | 2790 nM | 9.69 µM | 62500 nM | > 100 µM | 2420 nM | 13.3 µM | 3500 nM | > 100 µM
15 | CCCCCCCCCCC(=O)CCCCCCC(=O)O |  | 43.8 µM |  | 29.9 µM |  | 18.7 µM |  | 91.5 µM |  | 29.3 µM |  | 56.6 µM |  | 42.7 µM |  | 51.3 µM |  | 32.3 µM |  | 47.9 µM
16 | CCOC(=O)C1(CC(=O)O)CCCC1=O (stereo not given) |  | > 100 µM |  | > 100 µM |  | > 100 µM |  | > 100 µM |  | > 100 µM |  | > 100 µM |  | > 100 µM |  | > 100 µM |  | > 100 µM |  | > 100 µM
